Laboratory results: PubChem BioAssay AID180 (DTP/NCI, 2004)
Where “and” joins values, the source holds several entries; their conditions need not be identical. Equal values may be shown once.

System: BDF1 mice, Adenocarcinoma 755 s.c., tumor weight T/C
Assay: NCI In Vivo Anticancer Drug Screen. Data for tumor model Adenocarcinoma 755 (subcutaneous) in B6D2F1 (BDF1) mice
Conditions: endpoint: mean tumor weight, schedule: Q01DX011 (ip), higher = larger tumour
Description: The antitumor activity of compounds was measured in mice bearing transplantable tumors. Survival or tumor size were measured and the results are expressed as the measurement made in the treated group (T) divided by the measurement made in the vehicle treated control group (C). The tumor model used in this assay is Adenocarcinoma 755 (subcutaneous) in B6D2F1 (BDF1) mice

[1] = dose: 1.0 mg/kg/injection, vehicle: carboxymethylcellulose (CMC)

Nc1nc(=S)c2[nH]cnc2[nH]1 was tested, and the T/C (dose: 0.01 mg/kg/injection, vehicle: saline) was 113 % of control, the T/C (dose: 0.03 mg/kg/injection, vehicle: saline) was 81 % of control and the T/C (dose: 0.06 mg/kg/injection, vehicle: saline) was 88 % of control. For the same molecule, the T/C (dose: 0.07 mg/kg/injection, vehicle: alkali diluted with saline) was 74 % of control, the T/C (dose: 0.07 mg/kg/injection, vehicle: methylcellulose (MC)) was 28 % of control and the T/C (dose: 0.12 mg/kg/injection, vehicle: carboxymethylcellulose (CMC)) was 112 % of control. The T/C (dose: 0.12 mg/kg/injection, vehicle: saline) was 66 % of control, the T/C (dose: 0.13 mg/kg/injection, vehicle: alkali diluted with saline) was 95 % of control and the T/C (dose: 0.13 mg/kg/injection, vehicle: other) was 91 % of control. For the same molecule, the T/C (dose: 0.13 mg/kg/injection, vehicle: saline) was 7 % of control, the T/C (dose: 0.18 mg/kg/injection, vehicle: carboxymethylcellulose (CMC)) was 32 % of control and the T/C (dose: 0.2 mg/kg/injection, vehicle: methylcellulose (MC)) was 39 % of control. The T/C (dose: 0.24 mg/kg/injection, vehicle: carboxymethylcellulose (CMC)) was 77 % of control, the T/C (dose: 0.25 mg/kg/injection, vehicle: alkali diluted with saline) was 53 % of control and the T/C (dose: 0.25 mg/kg/injection, vehicle: distilled water + alcohol) was 7 % of control. For the same molecule, the T/C (dose: 0.25 mg/kg/injection, vehicle: methylcellulose (MC)) was 4 % of control and 11 % of control and 15 % of control, the T/C (dose: 0.25 mg/kg/injection, vehicle: other) was 32 % of control and the T/C (dose: 0.35 mg/kg/injection, vehicle: carboxymethylcellulose (CMC)) was 9 % of control. For the same molecule, the T/C (dose: 0.4 mg/kg/injection, vehicle: methylcellulose (MC)) was 12 % of control, the T/C (dose: 0.47 mg/kg/injection, vehicle: carboxymethylcellulose (CMC)) was 34 % of control and the T/C (dose: 0.5 mg/kg/injection, vehicle: alkali diluted with saline) was 4 % of control. For the same molecule, the T/C (dose: 0.5 mg/kg/injection, vehicle: distilled water + alcohol) was 7 % of control, the T/C (dose: 0.5 mg/kg/injection, vehicle: other) was 8 % of control and the T/C (dose: 0.5 mg/kg/injection, vehicle: saline) was 8 % of control. For the same molecule, the T/C (dose: 0.7 mg/kg/injection, vehicle: carboxymethylcellulose (CMC)) was 7 % of control, the T/C (dose: 0.94 mg/kg/injection, vehicle: carboxymethylcellulose (CMC)) was 30 % of control and the T/C (dose: 1.0 mg/kg/injection, vehicle: alkali diluted with saline) was 1 % of control. The T/C [1] was 1 % of control and 2 % of control, the T/C (dose: 1.0 mg/kg/injection, vehicle: distilled water + alcohol) was 2 % of control and the T/C (dose: 1.0 mg/kg/injection, vehicle: other) was 3 % of control. The T/C (dose: 1.0 mg/kg/injection, vehicle: saline) was 2 % of control and 8 % of control, the T/C (dose: 1.4 mg/kg/injection, vehicle: carboxymethylcellulose (CMC)) was 5 % of control and the T/C (dose: 1.5 mg/kg/injection, vehicle: methylcellulose (MC)) was 4 % of control. For the same molecule, the T/C (dose: 2.0 mg/kg/injection, vehicle: alkali diluted with saline) was 1 % of control, the T/C (dose: 2.0 mg/kg/injection, vehicle: carboxymethylcellulose (CMC)) was 1 % of control and the T/C (dose: 2.0 mg/kg/injection, vehicle: other) was 2 % of control. For the same molecule, the T/C (dose: 2.0 mg/kg/injection, vehicle: saline) was 3 % of control and 7 % of control, the T/C (dose: 3.0 mg/kg/injection, vehicle: methylcellulose (MC)) was 3 % of control and the T/C (dose: 4.0 mg/kg/injection, vehicle: carboxymethylcellulose (CMC)) was 1 % of control. For the same molecule, the T/C (dose: 4.0 mg/kg/injection, vehicle: methylcellulose (MC)) was 3 % of control, the T/C (dose: 4.0 mg/kg/injection, vehicle: other) was 1 % of control and the T/C (dose: 46.0 micrograms/kg/injection, vehicle: carboxymethylcellulose (CMC)) was 72 % of control. For the same molecule, the T/C (dose: 49.0 micrograms/kg/injection, vehicle: carboxymethylcellulose (CMC)) was 118 % of control, the T/C (dose: 58.0 micrograms/kg/injection, vehicle: carboxymethylcellulose (CMC)) was 91 % of control and the T/C (dose: 62.0 micrograms/kg/injection, vehicle: carboxymethylcellulose (CMC)) was 77 % of control. For the same molecule, the T/C (dose: 77.0 micrograms/kg/injection, vehicle: carboxymethylcellulose (CMC)) was 54 % of control, the T/C (dose: 82.0 micrograms/kg/injection, vehicle: carboxymethylcellulose (CMC)) was 69 % of control and the T/C (dose: 90.0 micrograms/kg/injection, vehicle: methylcellulose (MC)) was 32 % of control. The T/C (dose: 93.0 micrograms/kg/injection, vehicle: carboxymethylcellulose (CMC)) was 28 % of control, the T/C (dose: 116.0 micrograms/kg/injection, vehicle: carboxymethylcellulose (CMC)) was 12 % of control and 36 % of control and the T/C (dose: 140.0 micrograms/kg/injection, vehicle: carboxymethylcellulose (CMC)) was 11 % of control. For the same molecule, the T/C (dose: 155.0 micrograms/kg/injection, vehicle: carboxymethylcellulose (CMC)) was 6 % of control, the T/C (dose: 175.0 micrograms/kg/injection, vehicle: carboxymethylcellulose (CMC)) was 4 % of control and the T/C (dose: 187.0 micrograms/kg/injection, vehicle: methylcellulose (MC)) was 11 % of control. For the same molecule, the T/C (dose: 232.0 micrograms/kg/injection, vehicle: carboxymethylcellulose (CMC)) was 13 % of control, the T/C (dose: 233.0 micrograms/kg/injection, vehicle: carboxymethylcellulose (CMC)) was 2 % of control and 5 % of control and the T/C (dose: 350.0 micrograms/kg/injection, vehicle: carboxymethylcellulose (CMC)) was 3 % of control and 4 % of control. For the same molecule, the T/C (dose: 375.0 micrograms/kg/injection, vehicle: methylcellulose (MC)) was 9 % of control, the T/C (dose: 490.0 micrograms/kg/injection, vehicle: carboxymethylcellulose (CMC)) was 5 % of control and the T/C (dose: 750.0 micrograms/kg/injection, vehicle: methylcellulose (MC)) was 4 % of control. The T/C (dose: 980.0 micrograms/kg/injection, vehicle: carboxymethylcellulose (CMC)) was 4 % of control, the T/C (dose: 1500.0 micrograms/kg/injection, vehicle: methylcellulose (MC)) was 3 % of control and the T/C (dose: 3000.0 micrograms/kg/injection, vehicle: methylcellulose (MC)) was 4 % of control.
Nc1nc(SC2CCCCC2)c2[nH]cnc2n1 was tested, and the T/C [1] was 60 % of control, the T/C (dose: 5.0 mg/kg/injection, vehicle: carboxymethylcellulose (CMC)) was 83 % of control and the T/C (dose: 20.0 mg/kg/injection, vehicle: carboxymethylcellulose (CMC)) was 4 % of control and 9 % of control. For the same molecule, the T/C (dose: 40.0 mg/kg/injection, vehicle: carboxymethylcellulose (CMC)) was 1 % of control, the T/C (dose: 80.0 mg/kg/injection, vehicle: carboxymethylcellulose (CMC)) was 1 % of control and the T/C (dose: 160.0 mg/kg/injection, vehicle: carboxymethylcellulose (CMC)) was 2 % of control.
For Cc1ccccc1N(C=O)c1ccccc1C, the T/C (dose: 250.0 mg/kg/injection, vehicle: methylcellulose (MC)) was 108 % of control, the T/C (dose: 500.0 mg/kg/injection, vehicle: methylcellulose (MC)) was 120 % of control and the T/C (dose: 1000.0 mg/kg/injection, vehicle: methylcellulose (MC)) was 110 % of control.
CSc1nc(N)cc(=O)n1C was tested, and the T/C (dose: 50.0 mg/kg/injection, vehicle: saline) was 100 % of control, the T/C (dose: 100.0 mg/kg/injection, vehicle: saline) was 63 % of control and the T/C (dose: 200.0 mg/kg/injection, vehicle: saline) was 98 % of control.
For CSc1ncc(C)c(Nc2ccc(Br)cc2)n1, the T/C (dose: 15.0 mg/kg/injection, vehicle: methylcellulose (MC)) was 111 % of control and the T/C (dose: 31.0 mg/kg/injection, vehicle: methylcellulose (MC)) was 109 % of control.
